Measured values taken from patent US20060074243A1, “Hydroxamic acid and amide compounds and their use as protease inhibitors” (Pharmacia Corporation, priority 2002, published 2006).

Experiments:
Human recombinant MMP-1 = biological target: T1, Human recombinant MMP-1 (Homo sapiens, UniProt P03956); experiment: In vitro MMP inhibition analysis (fluorogenic peptide substrate cleavage), Ki; format: biochemical; settings: Table 2
T1 construct: made in house; host or cells: MMP-1-transfected HT-1080 cells (spent media)
T1 sequence (P03956 100-469): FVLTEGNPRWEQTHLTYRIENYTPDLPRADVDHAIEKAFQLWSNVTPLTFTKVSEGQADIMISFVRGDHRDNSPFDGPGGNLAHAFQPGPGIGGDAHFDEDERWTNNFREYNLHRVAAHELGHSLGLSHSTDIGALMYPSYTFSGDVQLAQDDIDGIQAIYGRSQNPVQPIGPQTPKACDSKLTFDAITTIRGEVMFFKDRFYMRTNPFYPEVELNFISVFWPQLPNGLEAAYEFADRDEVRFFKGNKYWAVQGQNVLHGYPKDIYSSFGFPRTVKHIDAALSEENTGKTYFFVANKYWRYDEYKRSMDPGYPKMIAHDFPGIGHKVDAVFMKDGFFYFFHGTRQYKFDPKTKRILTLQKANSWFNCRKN
How it was run: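 APMA- or trypsin-activated recombinant human MMP-1 (purified from transfected HT-1080 medium) with 4 μM MCA/Dpa quenched fluorogenic peptide, 1 h at room temperature in Tris/NaCl/CaCl2 buffer pH 7.5; fluorescence ex 330/em 420 nm. Ki from Morrison-equation fit of rates, substrate at or below Km, uncorrected.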

Human recombinant MMP-13 = biological target: T2, Human recombinant MMP-13 (Homo sapiens, UniProt P45452); experiment: as above; format: biochemical; settings: Table 2
T2 construct: made in house; host or cells: baculovirus / insect cells
How it was run: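 Baculovirus-expressed full-length MMP-13 proenzyme was purified on heparin-agarose and zinc-chelate columns, then APMA-activated. It cleaved 4 μM MCA/Dpa fluorogenic peptide in 100 mM Tris-HCl, 100 mM NaCl, 10 mM CaCl2, 0.05% Brij-23, pH 7.5, for 1 h at room temperature (ex 330/em 420 nm). Ki came from Morrison-equation fits with substrate ≤Km, uncorrected.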

| Structure (SMILES) | Ki (Human recombinant MMP-1) [nM] | Ki (Human recombinant MMP-13) [nM] |
| --- | --- | --- |
| COCCN1CCC(C(=O)NO)(S(=O)(=O)c2ccc(-c3cnc(OCCC4CCCC4)cn3)cc2)CC1 [Example 200] | > 10000 | 0.144 |
| O=C(NO)C1(S(=O)(=O)c2ccc(-c3ccc(CCC(F)(F)C(F)(F)F)cn3)cc2)CCOCC1 [Example 201] | 980 | 0.02 |
| O=C(NO)C1(S(=O)(=O)c2ccc(-c3ccc(CCCC(F)(F)F)cn3)cc2)CC=CC1 [Example 202] | 4060 | 0.076 |
| CCCCNC(=O)c1ccc(-c2ccc(S(=O)(=O)C3(C(=O)NO)CCOCC3)cc2)nc1 [Example 203] | 1140 | 0.375 |
| CC(C)NC(=O)c1ccc(-c2ccc(S(=O)(=O)C3(C(=O)NO)CCOCC3)cc2)nc1 [Example 204] | 751 | 0.751 |
| CC(C)(C)NC(=O)c1ccc(-c2ccc(S(=O)(=O)C3(C(=O)NO)CCOCC3)cc2)nc1 [Example 205] | 1070 | 1.19 |
| CCCCc1cnc(-c2ccc(S(=O)(=O)C3(C(=O)NO)CCN(CCOC)CC3)cc2)cn1 [Example 206] | > 10000 | 0.41 |
| CC[C@@H](C)NC(=O)c1ccc(-c2ccc(S(=O)(=O)C3(C(=O)NO)CCOCC3)cc2)nc1 [Example 207] | 1380 | 0.729 |
| CC[C@H](C)NC(=O)c1ccc(-c2ccc(S(=O)(=O)C3(C(=O)NO)CCOCC3)cc2)nc1 [Example 208] | 1260 | 0.715 |
| COCCOC1CCC(C(=O)NO)(S(=O)(=O)c2ccc(-c3ccc(CCCC(F)(F)F)cn3)cc2)CC1 (stereo not drawn) [Example 209] | 1280 | 0.029 |
| COCCOC1CCC(C(=O)NO)(S(=O)(=O)c2ccc(-c3cnc(CCCC(F)(F)F)cn3)cc2)CC1 (stereo not drawn) [Example 210] | > 10000 | 0.151 |
| O=C(CCc1nccs1)c1ccc(-c2ccc(S(=O)(=O)C3(C(=O)NO)CCOCC3)cc2)cc1 [Example 211] | 975 | 0.056 |
| O=C(Cc1ccc(-c2ccc(S(=O)(=O)C3(C(=O)NO)CCOCC3)cc2)nc1)N1CCCCC1 [Example 212] | > 10000 | 0.679 |
| CCN1CCC(C(=O)NO)(S(=O)(=O)c2ccc(-c3cnc(CCC(F)(F)F)cn3)cc2)CC1 [Example 213] | > 10000 | 1.41 |
| COCCN1CCC(C(=O)NO)(S(=O)(=O)c2ccc(-c3cnc(CCC(F)(F)F)cn3)cc2)CC1 [Example 214] | > 10000 | 0.661 |
| O=C(NO)C1(S(=O)(=O)c2ccc(-c3cnc(CCC(F)(F)F)cn3)cc2)CCN(C2CC2)CC1 [Example 215] | > 10000 | 0.356 |
| C#CCN(C)C(=O)c1ccc2cc(-c3ccc(S(=O)(=O)C4(C(=O)NO)CCOCC4)cc3)ccc2c1 [Example 216] | 1860 | 0.572 |
| CCN1CCC(C(=O)NO)(S(=O)(=O)c2ccc(-c3cnc(CCCC(F)(F)F)cn3)cc2)CC1 [Example 217] | > 10000 | 1.2 |
| O=C(NO)C1(S(=O)(=O)c2ccc(-c3cnc(CCCC(F)(F)F)cn3)cc2)CCN(C2CC2)CC1 [Example 218] | > 10000 | 0.267 |
| Cc1nc(CCc2ccc(-c3ccc(S(=O)(=O)C4(C(=O)NO)CCOCC4)cc3)cc2)no1 [Example 219] | 1700 | 0.111 |
| O=C(NCC1CC1)c1ccc2cc(-c3ccc(S(=O)(=O)C4(C(=O)NO)CCOCC4)cc3)ccc2c1 [Example 220] | 251 | 0.259 |
| CN(C)C(=O)c1ccc2cc(-c3ccc(S(=O)(=O)C4(C(=O)NO)CCOCC4)cc3)ccc2c1 [Example 221] | 1860 | 0.736 |
| O=C(c1ccc2cc(-c3ccc(S(=O)(=O)C4(C(=O)NO)CCOCC4)cc3)ccc2c1)N1CCOCC1 [Example 222] | 1440 | 0.612 |
| O=C(c1ccc2cc(-c3ccc(S(=O)(=O)C4(C(=O)NO)CCOCC4)cc3)ccc2c1)N1CCCCC1 [Example 223] | 1500 | 0.97 |
